Assays:
[1] = system: A549 Cell line (Lung Cancer Cell line); experiment: Cell proliferation assay (MTT), in-vitro anticancer activity against A549 cell line; type: cell-based; details: Homo sapiens, 72 h; for viability at 0.01 µM: A549, 0.01 μM; for viability at 0.1 µM: A549, 0.1 μM; for viability at 2.5 µM: A549, 2.5 μM; for viability at 5 µM: A549, 5 μM; for viability at 10 µM: A549, 10 μM
Description: (§1) Each cell line was plated in 96-well microtiter plates (10,000 cells per well), and serial dilutions of indicated compounds were added. At the end of the incubation period (72 h at 37° C.), cell viability was determined by a tetrazolium dye, MTT (3-(4,5-dimethylthiazol-2-yl)-2,5-diphenyl tetrazolium bromide) (Promega, USA). The formazan crystals were dissolved in DMSO, and the absorbance at 600 nm was recorded using an ELISA plate reader. IC50 values were calculated using nonlinear regression and defined as the concentration needed for a 50% reduction in absorbance of treated versus untreated control cells.
In-Vitro Anticancer Activity Against A549 Cell Line (Lung Cancer Cell Line) (Adenocarcinomic Human Alveolar Basal Epithelial Cells)

Log P (Table 4) = type: physicochemical; details: method not stated
[2] = system: U87MG Cell line (glioblastoma cell line); experiment: Cell proliferation assay (MTT), in-vitro anticancer activity against U87MG cell line; type: cell-based; details: Homo sapiens, U-87 MG, 72 h
Description: as §1
In-Vitro Anticancer Activity Against U87MG Cell Line (Glioblastoma Cell Line)

SMILES	melting point	viability at 0.01 µM [1]	viability at 0.1 µM [1]	viability at 2.5 µM [1]	viability at 5 µM [1]	viability at 10 µM [1]	logP (Log P (Table 4))	viability at 0.01 µM [2]	viability at 0.1 µM [2]	viability at 2.5 µM [2]	viability at 5 µM [2]	viability at 10 µM [2]
COc1ccc2c(=O)cc(-c3sc(Nc4ccccc4OC)nc3N)oc2c1 [Compound S1-M15, 2-(2-(2-methoxyphenylamino)-4-aminothiazol-5-yl)-7-methoxy-4H-chromen-4-one]	210 to 212 °C	96.1%	92.7%	85.3%	75.3%	68.3%	2.5	89.1%	77.9%	68.7%	60.7%	50.3%
Nc1nc(Nc2ccccc2)sc1-c1cc(=O)c2ccccc2o1 [Compound S1-M1, 2-(4-amino-2-(phenylamino)thiazol-5-yl)-4H-chromen-4-one]	232 to 234 °C	100%	90.5%	82.5%	75.5%	60.5%	3.2	88%	79.5%	70.5%	62.5%	51.5%
COc1ccc2oc(-c3sc(Nc4ccccc4C)nc3N)cc(=O)c2c1 [Compound S1-M11, 2-(2-(o-tolylamino)-4-aminothiazol-5-yl)-6-methoxy-4H-chromen-4-one]	288 to 290 °C	99.8%	93.7%	84.8%	72.8%	62.8%	2.11	83.8%	75.7%	67.2%	58.8%	49.8%
COc1ccc2oc(-c3sc(Nc4ccc(C)cc4)nc3N)cc(=O)c2c1 [Compound S1-M10, 2-(2-(p-tolylamino)-4-aminothiazol-5-yl)-6-methoxy-4H-chromen-4-one]	280 to 282 °C	96.9%	93%	86.4%	76.4%	66.4%	3.99	87.9%	78%	69.4%	59.4%	50.4%
COc1ccccc1Nc1nc(N)c(-c2cc(=O)c3ccc(O)cc3o2)s1 [Compound S1-M7, 2-(2-(2-methoxyphenylamino)-4-aminothiazol-5-yl)-7-hydroxy-4H-chromen-4-one]	210 to 212 °C	96.1%	94.9%	84.8%	74.8%	66.8%	2.11	85.1%	75.9%	65.8%	57.8%	45.8%
COc1ccc2oc(-c3sc(Nc4c(C)cccc4C)nc3N)cc(=O)c2c1 [Compound S1-M12, 2-(2-(2,6-dimethylphenylamino)-4-aminothiazol-5-yl)-6-methoxy-4H-chromen-4-one]	228 to 230 °C	92.1%	95.4%	86.9%	78.9%	66.9%	2.7	85.1%	73.4%	65.9%	56.9%	45.8%
Cc1ccccc1Nc1nc(N)c(-c2cc(=O)c3ccc(O)cc3o2)s1 [Compound S1-M3, 2-(2-(o-tolylamino)-4-aminothiazol-5-yl)-7-hydroxy-4H-chromen-4-one]	268 to 270 °C	97.6%	91.4%	85.8%	74.8%	55.8%	2.01	82.6%	74.4%	68.8%	60.8%	54.8%
Cc1cccc(C)c1Nc1nc(N)c(-c2cc(=O)c3ccc(O)cc3o2)s1 [Compound S1-M4, 2-(2-(2,6-dimethylphenylamino)-4-aminothiazol-5-yl)-7-hydroxy-4H-chromen-4-one]	224 to 226 °C	88.6%	85.8%	77.6%	68.6%	61.6%	3.42	80.6%	71.8%	65.6%	58.6%	50.6%
COc1ccc2oc(-c3sc(Nc4c(Cl)cccc4Cl)nc3N)cc(=O)c2c1 [Compound S1-M13, 2-(2-(2,6-dichlorophenylamino)-4-aminothiazol-5-yl)-6-methoxy-4H-chromen-4-one]	260 to 262 °C	95.4%	90.9%	82.6%	72.6%	62.6%	2.18	90.4%	81.9%	72.4%	64.6%	55.9%
COc1ccc(Nc2nc(N)c(-c3cc(=O)c4ccc(OC)cc4o3)s2)cc1 [Compound S1-M14, 2-(2-(4-methoxyphenylamino)-4-aminothiazol-5-yl)-7-methoxy-4H-chromen-4-one]	220 to 222 °C	98%	89.1%	81.1%	71.1%	63.1%	2.6	91%	80.1%	70.6%	61.3%	51.1%
Nc1nc(Nc2c(Cl)cccc2Cl)sc1-c1cc(=O)c2ccc(O)cc2o1 [Compound S1-M5, 2-(2-(2,6-dichlorophenylamino)-4-aminothiazol-5-yl)-7-hydroxy-4H-chromen-4-one]	260 to 262 °C	98.8%	91.6%	83.9%	71.9%	65.9%	3.02	84.8%	77.6%	69.9%	60.9%	52.9%
Nc1nc(Nc2ccccc2)sc1-c1cc(=O)c2ccc(O)cc2o1 [Compound S1-M8, 2-(4-amino-2-(phenylamino)thiazol-5-yl)-7-hydroxy-4H-chromen-4-one]	218 to 220 °C	93.3%	87.1%	75%	64%	54%	3.32	88.3%	76.1%	68%	59%	51.4%
COc1cc2ncnc(Nc3ccc(F)c(Cl)c3)c2cc1OCCCN1CCOCC1 [Gefitinib, gefitinib, reference compound]	–	55.2%	43.7%	35.3%	29.3%	20.3%	–	55.2%	43.7%	35.3%	29.3%	20.3%
Cc1ccc(Nc2nc(N)c(-c3cc(=O)c4ccc(O)cc4o3)s2)cc1 [Compound S1-M2, 2-(2-(p-tolylamino)-4-aminothiazol-5-yl)-7-hydroxy-4H-chromen-4-one]	244 to 246 °C	56.1%	41.1%	31.1%	24.1%	20.9%	1.9	41.1%	34.4%	28.1%	19.6%	14.9%
COc1ccc(Nc2nc(N)c(-c3cc(=O)c4ccc(O)cc4o3)s2)cc1 [Compound S1-M6, 2-(2-(4-methoxyphenylamino)-4-aminothiazol-5-yl)-7-hydroxy-4H-chromen-4-one]	220 to 222 °C	53.1%	45.1%	36.7%	27.9%	19.4%	1.92	48.7%	35.2%	25.8%	19.9%	12.9%
Cc1ccc(Nc2nc(N)c(-c3cc(=O)c4ccccc4o3)s2)cc1 [Compound S1-M9, 2-(2-(p-tolylamino)-4-aminothiazol-5-yl)-4H-chromen-4-one]	200 to 202 °C	100%	91.8%	87.3%	77.3%	67.3%	1.9	87%	78.8%	70.3%	62.3%	55.6%
